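Cultured in 96-well plates, cells were exposed to test compound for 48 hours across five concentrations. At the TGI there is no net growth.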
Tests used:
Assay in all cases: growth of human tumour cells (NCI), 48 h
SNB-19 CNS = test system: SNB-19 CNS
MDA-N = test system: MDA-N
NCI-H522 lung = test system: NCI-H522 lung
NCI-H460 lung = test system: NCI-H460 lung
MOLT-4 leukemia = test system: MOLT-4 leukemia
A549 NSCLC = test system: A549 NSCLC
CCRF-CEM leukemia = test system: CCRF-CEM leukemia
HCT-15 colon = test system: HCT-15 colon
KM12 colon = test system: KM12 colon
MALME-3M melanoma = test system: MALME-3M melanoma
DU-145 prostate = test system: DU-145 prostate
SF-295 CNS = test system: SF-295 CNS
SK-MEL-5 melanoma = test system: SK-MEL-5 melanoma
OVCAR-5 ovarian = test system: OVCAR-5 ovarian
HCC-2998 colon = test system: HCC-2998 colon
NCI-H23 lung = test system: NCI-H23 lung
HT29 colon = test system: HT29 colon
K-562 leukemia = test system: K-562 leukemia
IGROV1 ovarian = test system: IGROV1 ovarian
MCF7 breast = test system: MCF7 breast
MDA-MB-231 breast = test system: MDA-MB-231 breast
SW-620 colon = test system: SW-620 colon
NCI/ADR-RES ovarian = test system: NCI/ADR-RES ovarian
EKVX NSCLC = test system: EKVX NSCLC
PC-3 prostate = test system: PC-3 prostate
HOP-92 NSCLC = test system: HOP-92 NSCLC
OVCAR-3 ovarian = test system: OVCAR-3 ovarian
LOX IMVI melanoma = test system: LOX IMVI melanoma
SR leukemia = test system: SR leukemia
HS 578T breast = test system: HS 578T breast
U251 CNS = test system: U251 CNS
COLO 205 colon = test system: COLO 205 colon
SN12C renal = test system: SN12C renal
HCT-116 colon = test system: HCT-116 colon
SK-MEL-28 melanoma = test system: SK-MEL-28 melanoma
T-47D breast = test system: T-47D breast
HOP-62 NSCLC = test system: HOP-62 NSCLC
TK-10 renal = test system: TK-10 renal
RPMI-8226 leukemia = test system: RPMI-8226 leukemia
UACC-257 melanoma = test system: UACC-257 melanoma
UO-31 renal = test system: UO-31 renal
CAKI-1 renal = test system: CAKI-1 renal
NCI-H226 lung = test system: NCI-H226 lung
SNB-75 CNS = test system: SNB-75 CNS
BT-549 breast = test system: BT-549 breast
HL-60(TB) leukemia = test system: HL-60(TB) leukemia
RXF 393 renal = test system: RXF 393 renal
786-0 renal = test system: 786-0 renal
OVCAR-4 ovarian = test system: OVCAR-4 ovarian
SF-268 CNS = test system: SF-268 CNS
SK-OV-3 ovarian = test system: SK-OV-3 ovarian
MDA-MB-435 = test system: MDA-MB-435
UACC-62 melanoma = test system: UACC-62 melanoma
ACHN renal = test system: ACHN renal
SK-MEL-2 melanoma = test system: SK-MEL-2 melanoma
M14 melanoma = test system: M14 melanoma
A498 renal = test system: A498 renal
OVCAR-8 ovarian = test system: OVCAR-8 ovarian
SF-539 CNS = test system: SF-539 CNS

SMILES: O=C(O)c1cc(C(=O)O)nc(C(=O)O)c1
- TGI (SNB-19 CNS): > 100 µM
- TGI (MDA-N): > 100 µM
- TGI (NCI-H522 lung): > 100 µM
- TGI (NCI-H460 lung): > 100 µM
- TGI (MOLT-4 leukemia): > 100 µM
- TGI (A549 NSCLC): > 100 µM
- TGI (CCRF-CEM leukemia): > 100 µM
- TGI (HCT-15 colon): > 100 µM
- TGI (KM12 colon): > 100 µM
- TGI (MALME-3M melanoma): > 100 µM
- TGI (DU-145 prostate): > 100 µM
- TGI (SF-295 CNS): > 100 µM
- TGI (SK-MEL-5 melanoma): > 100 µM
- TGI (OVCAR-5 ovarian): > 100 µM
- TGI (HCC-2998 colon): > 100 µM
- TGI (NCI-H23 lung): > 100 µM
- TGI (HT29 colon): > 100 µM
- TGI (K-562 leukemia): > 100 µM
- TGI (IGROV1 ovarian): > 100 µM
- TGI (MCF7 breast): > 100 µM
- TGI (MDA-MB-231 breast): > 100 µM
- TGI (SW-620 colon): > 100 µM
- TGI (NCI/ADR-RES ovarian): > 100 µM
- TGI (EKVX NSCLC): > 100 µM
- TGI (PC-3 prostate): > 100 µM
- TGI (HOP-92 NSCLC): > 100 µM
- TGI (OVCAR-3 ovarian): > 100 µM
- TGI (LOX IMVI melanoma): > 100 µM
- TGI (SR leukemia): > 100 µM
- TGI (HS 578T breast): > 100 µM
- TGI (U251 CNS): > 100 µM
- TGI (COLO 205 colon): > 100 µM
- TGI (SN12C renal): > 100 µM
- TGI (HCT-116 colon): > 100 µM
- TGI (SK-MEL-28 melanoma): > 100 µM
- TGI (T-47D breast): > 100 µM
- TGI (HOP-62 NSCLC): > 100 µM
- TGI (TK-10 renal): > 100 µM
- TGI (RPMI-8226 leukemia): > 100 µM
- TGI (UACC-257 melanoma): > 100 µM
- TGI (UO-31 renal): > 100 µM
- TGI (CAKI-1 renal): > 100 µM
- TGI (NCI-H226 lung): > 100 µM
- TGI (SNB-75 CNS): > 100 µM
- TGI (BT-549 breast): > 100 µM
- TGI (HL-60(TB) leukemia): > 100 µM
- TGI (RXF 393 renal): > 100 µM
- TGI (786-0 renal): > 100 µM
- TGI (OVCAR-4 ovarian): > 100 µM
- TGI (SF-268 CNS): > 100 µM
- TGI (SK-OV-3 ovarian): > 100 µM
- TGI (MDA-MB-435): > 100 µM
- TGI (UACC-62 melanoma): > 100 µM
- TGI (ACHN renal): > 100 µM
- TGI (SK-MEL-2 melanoma): > 100 µM
- TGI (M14 melanoma): > 100 µM
- TGI (A498 renal): > 100 µM
- TGI (OVCAR-8 ovarian): > 100 µM
- TGI (SF-539 CNS): > 100 µM

SMILES: CC(C)=CCc1c(O)c(CC=C(C)C)c2oc(-c3ccc(O)cc3O)c(CC=C(C)C)c(=O)c2c1O
- TGI (SNB-19 CNS): 25.6 µM
- TGI (MDA-N): 20.4 µM
- TGI (NCI-H522 lung): 24.9 µM
- TGI (NCI-H460 lung): 17.8 µM
- TGI (MOLT-4 leukemia): 14.6 µM
- TGI (A549 NSCLC): 24.2 µM
- TGI (CCRF-CEM leukemia): 5.83 µM
- TGI (HCT-15 colon): 23.8 µM
- TGI (KM12 colon): 16.7 µM
- TGI (MALME-3M melanoma): 33.4 µM
- TGI (DU-145 prostate): 25.2 µM
- TGI (SF-295 CNS): 20.3 µM
- TGI (SK-MEL-5 melanoma): 23 µM
- TGI (OVCAR-5 ovarian): 28.3 µM
- TGI (HCC-2998 colon): 11.7 µM
- TGI (NCI-H23 lung): 22 µM
- TGI (HT29 colon): 22.8 µM
- TGI (K-562 leukemia): 27.4 µM
- TGI (IGROV1 ovarian): 23.6 µM
- TGI (MCF7 breast): 18.3 µM
- TGI (MDA-MB-231 breast): 27.6 µM
- TGI (SW-620 colon): 23.3 µM
- TGI (NCI/ADR-RES ovarian): 53.4 µM
- TGI (EKVX NSCLC): 27.9 µM
- TGI (PC-3 prostate): 18.4 µM
- TGI (HOP-92 NSCLC): 23 µM
- TGI (OVCAR-3 ovarian): 19.6 µM
- TGI (LOX IMVI melanoma): 22.5 µM
- TGI (SR leukemia): 9.88 µM
- TGI (HS 578T breast): 45.6 µM
- TGI (U251 CNS): 22.8 µM
- TGI (COLO 205 colon): > 59.5 µM
- TGI (SN12C renal): 21.1 µM
- TGI (HCT-116 colon): 17 µM
- TGI (SK-MEL-28 melanoma): 26.6 µM
- TGI (T-47D breast): 12.8 µM
- TGI (HOP-62 NSCLC): 23.4 µM
- TGI (TK-10 renal): 21.2 µM
- TGI (RPMI-8226 leukemia): 10.9 µM
- TGI (UACC-257 melanoma): 25.6 µM
- TGI (UO-31 renal): 21.1 µM
- TGI (CAKI-1 renal): 25.4 µM
- TGI (NCI-H226 lung): 47.6 µM
- TGI (SNB-75 CNS): 22.7 µM
- TGI (BT-549 breast): 21.6 µM
- TGI (HL-60(TB) leukemia): 21.7 µM
- TGI (RXF 393 renal): 14.6 µM
- TGI (786-0 renal): 21.4 µM
- TGI (OVCAR-4 ovarian): 18.1 µM
- TGI (SF-268 CNS): > 53.2 µM
- TGI (SK-OV-3 ovarian): 26.2 µM
- TGI (MDA-MB-435): 16.7 µM
- TGI (UACC-62 melanoma): 20.3 µM
- TGI (ACHN renal): 20.9 µM
- TGI (SK-MEL-2 melanoma): 12.8 µM
- TGI (M14 melanoma): 22.5 µM
- TGI (A498 renal): 27.3 µM
- TGI (OVCAR-8 ovarian): 19.7 µM
- TGI (SF-539 CNS): 32.7 µM

Source: PubChem BioAssay (NCI)
